ChEMBL document CHEMBL3627714, “Development of a novel class of potent and selective FIXa inhibitors” (Bioorg Med Chem Lett, 2015)

Tests used:
Coagulation factor IX = Coagulation factor IX (Homo sapiens, UniProt P00740); assay: Inhibition of human coagulation factor 9a using fluorescent peptide CH3SO2-D-CHG-Gly-Arg-AFC-AcoH as substrate
Coagulation factor X = Coagulation factor X (Homo sapiens, UniProt P00742); assay: Inhibition of human coagulation factor 10a using fluorescent peptide nAcetyl-KPR-AFC as substrate
[1] = Oral bioavailability in rat at 2 mg/kg; assay type: ADME, organism-based; conditions: in vivo
[2] = Clearance in rat at 2 mg/kg, po and 0.5 mg/kg, iv; assay type: ADME, organism-based; conditions: in vivo
Cytochrome P450 2D6 = Cytochrome P450 2D6 (Homo sapiens, UniProt P10635); assay: Inhibition of CYP2D6 (unknown origin); assay type: ADME
Rattus norvegicus = assay: Dose normalized AUC in rat at 2 mg/kg, po; assay type: ADME, organism-based; conditions: in vivo
Cytochrome P450 3A4 = Cytochrome P450 3A4 (Homo sapiens, UniProt P08684); assay: Inhibition of CYP3A4 (unknown origin); assay type: ADME
[3] = Half life in rat at 2 mg/kg, po and 0.5 mg/kg, iv; assay type: ADME, organism-based; conditions: in vivo
Cytochrome P450 2C9 = Cytochrome P450 2C9 (Homo sapiens, UniProt P11712); assay: Inhibition of CYP2C9 (unknown origin); assay type: ADME
[4] = molecular target: Voltage-gated inwardly rectifying potassium channel KCNH2 (Homo sapiens, UniProt Q12809)
Cytochrome P450 2C8 = molecular target: T1, Cytochrome P450 2C8 (Homo sapiens, UniProt P10632); assay: Inhibition of CYP2C8 (unknown origin); assay type: ADME
T1 sequence (P10632 whole entry): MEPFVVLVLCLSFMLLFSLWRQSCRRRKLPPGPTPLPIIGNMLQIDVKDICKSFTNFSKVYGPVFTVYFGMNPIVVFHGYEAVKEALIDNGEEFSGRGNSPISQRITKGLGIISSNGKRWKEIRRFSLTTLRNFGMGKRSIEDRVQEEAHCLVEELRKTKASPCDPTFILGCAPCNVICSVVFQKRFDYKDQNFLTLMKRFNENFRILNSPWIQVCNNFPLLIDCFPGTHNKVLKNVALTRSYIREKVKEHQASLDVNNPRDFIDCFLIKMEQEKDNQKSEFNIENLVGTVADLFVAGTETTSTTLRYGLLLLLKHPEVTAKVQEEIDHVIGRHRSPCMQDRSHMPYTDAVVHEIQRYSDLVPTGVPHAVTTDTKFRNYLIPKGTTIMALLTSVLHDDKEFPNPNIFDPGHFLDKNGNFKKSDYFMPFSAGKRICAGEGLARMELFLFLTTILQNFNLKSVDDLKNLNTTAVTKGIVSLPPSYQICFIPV

Plasma [5] = assay: Anticoagulant activity in 20 pM tissue factor stimulated human CTI-citrated plasma assessed as inhibition of thrombin generation incubated for 5 mins by calibrated automated thrombogram analysis; assay type: functional, cell-free
Plasma [6] = assay: Anticoagulant activity in 0.3 pM recombinant coagulation factor 11a stimulated human CTI-citrated plasma assessed as inhibition of thrombin generation incubated for 5 mins by calibrated automated thrombogram analysis; assay type: functional, cell-free
Plasma [7] = assay: Anticoagulant activity in 10 pM recombinant coagulation factor 11a stimulated human CTI-citrated plasma assessed as inhibition of thrombin generation incubated for 5 mins by calibrated automated thrombogram analysis; assay type: functional, cell-free
Plasma [8] = assay: Anticoagulant activity in 1 pM recombinant coagulation factor 11a stimulated human CTI-citrated plasma assessed as inhibition of thrombin generation incubated for 5 mins by calibrated automated thrombogram analysis; assay type: functional, cell-free
Plasma [9] = assay: Anticoagulant activity in 10 pM tissue factor stimulated human CTI-citrated plasma assessed as inhibition of thrombin generation incubated for 5 mins by calibrated automated thrombogram analysis; assay type: functional, cell-free
Plasma [10] = assay: Anticoagulant activity in 3 pM recombinant coagulation factor 11a stimulated human CTI-citrated plasma assessed as inhibition of thrombin generation incubated for 5 mins by calibrated automated thrombogram analysis; assay type: functional, cell-free
Plasma [11] = assay: Anticoagulant activity in 1 pM tissue factor stimulated human CTI-citrated plasma assessed as inhibition of thrombin generation incubated for 5 mins by calibrated automated thrombogram analysis; assay type: functional, cell-free
Plasma [12] = assay: Anticoagulant activity in 0.3 pM tissue factor stimulated human CTI-citrated plasma assessed as inhibition of thrombin generation incubated for 5 mins by calibrated automated thrombogram analysis; assay type: functional, cell-free
Plasma [13] = assay: Anticoagulant activity in 0.1 pM recombinant coagulation factor 11a stimulated human CTI-citrated plasma assessed as inhibition of thrombin generation incubated for 5 mins by calibrated automated thrombogram analysis; assay type: functional, cell-free
Plasma [14] = assay: Anticoagulant activity in 3 pM tissue factor stimulated human CTI-citrated plasma assessed as inhibition of thrombin generation incubated for 5 mins by calibrated automated thrombogram analysis; assay type: functional, cell-free

Cytochrome P450 2D6, sequence (P10635 whole entry): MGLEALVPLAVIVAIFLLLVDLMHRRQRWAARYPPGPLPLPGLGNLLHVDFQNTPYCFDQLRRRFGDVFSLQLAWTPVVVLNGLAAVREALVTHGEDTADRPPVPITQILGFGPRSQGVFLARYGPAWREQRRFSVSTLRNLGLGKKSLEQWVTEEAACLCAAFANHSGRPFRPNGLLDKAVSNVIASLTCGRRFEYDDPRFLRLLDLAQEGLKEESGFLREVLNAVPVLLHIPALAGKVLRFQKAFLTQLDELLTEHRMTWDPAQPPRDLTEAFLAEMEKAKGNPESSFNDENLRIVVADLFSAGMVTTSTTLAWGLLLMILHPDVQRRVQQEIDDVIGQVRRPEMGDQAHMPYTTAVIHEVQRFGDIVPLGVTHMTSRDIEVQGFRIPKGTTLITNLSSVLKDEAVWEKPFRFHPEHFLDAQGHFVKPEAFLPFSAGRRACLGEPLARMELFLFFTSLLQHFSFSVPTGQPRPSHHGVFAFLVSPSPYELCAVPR
Voltage-gated inwardly rectifying potassium channel KCNH2, sequence (Q12809 whole entry): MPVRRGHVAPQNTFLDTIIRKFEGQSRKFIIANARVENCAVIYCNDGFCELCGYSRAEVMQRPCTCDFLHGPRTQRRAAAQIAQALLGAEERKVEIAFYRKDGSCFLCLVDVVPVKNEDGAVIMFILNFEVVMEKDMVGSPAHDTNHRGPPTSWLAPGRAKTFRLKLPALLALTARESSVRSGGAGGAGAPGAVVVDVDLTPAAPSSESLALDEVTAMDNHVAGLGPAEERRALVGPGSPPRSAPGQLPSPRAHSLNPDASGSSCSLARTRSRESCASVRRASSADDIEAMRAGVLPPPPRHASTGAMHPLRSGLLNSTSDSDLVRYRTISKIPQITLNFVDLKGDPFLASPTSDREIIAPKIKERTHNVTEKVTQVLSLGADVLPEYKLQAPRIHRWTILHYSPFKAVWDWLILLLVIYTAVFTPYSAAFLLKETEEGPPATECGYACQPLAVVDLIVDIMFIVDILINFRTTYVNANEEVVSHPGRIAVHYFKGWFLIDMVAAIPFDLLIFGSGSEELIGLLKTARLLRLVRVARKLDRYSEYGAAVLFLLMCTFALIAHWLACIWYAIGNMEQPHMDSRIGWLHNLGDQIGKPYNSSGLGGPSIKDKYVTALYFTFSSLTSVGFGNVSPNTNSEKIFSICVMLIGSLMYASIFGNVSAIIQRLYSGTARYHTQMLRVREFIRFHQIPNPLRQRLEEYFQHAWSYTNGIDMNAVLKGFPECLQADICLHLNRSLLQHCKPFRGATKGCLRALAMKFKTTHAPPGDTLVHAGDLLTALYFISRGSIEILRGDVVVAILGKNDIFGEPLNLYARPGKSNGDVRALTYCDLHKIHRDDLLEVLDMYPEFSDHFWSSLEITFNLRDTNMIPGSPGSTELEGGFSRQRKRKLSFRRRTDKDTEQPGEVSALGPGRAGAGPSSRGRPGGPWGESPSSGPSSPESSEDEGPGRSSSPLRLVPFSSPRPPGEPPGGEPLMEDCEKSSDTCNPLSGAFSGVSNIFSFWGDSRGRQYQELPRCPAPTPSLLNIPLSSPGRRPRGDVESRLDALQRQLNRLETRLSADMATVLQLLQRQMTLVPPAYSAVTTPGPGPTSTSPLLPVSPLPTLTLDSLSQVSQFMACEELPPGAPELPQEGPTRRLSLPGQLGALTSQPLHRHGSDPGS
Cytochrome P450 3A4, sequence (P08684 whole entry): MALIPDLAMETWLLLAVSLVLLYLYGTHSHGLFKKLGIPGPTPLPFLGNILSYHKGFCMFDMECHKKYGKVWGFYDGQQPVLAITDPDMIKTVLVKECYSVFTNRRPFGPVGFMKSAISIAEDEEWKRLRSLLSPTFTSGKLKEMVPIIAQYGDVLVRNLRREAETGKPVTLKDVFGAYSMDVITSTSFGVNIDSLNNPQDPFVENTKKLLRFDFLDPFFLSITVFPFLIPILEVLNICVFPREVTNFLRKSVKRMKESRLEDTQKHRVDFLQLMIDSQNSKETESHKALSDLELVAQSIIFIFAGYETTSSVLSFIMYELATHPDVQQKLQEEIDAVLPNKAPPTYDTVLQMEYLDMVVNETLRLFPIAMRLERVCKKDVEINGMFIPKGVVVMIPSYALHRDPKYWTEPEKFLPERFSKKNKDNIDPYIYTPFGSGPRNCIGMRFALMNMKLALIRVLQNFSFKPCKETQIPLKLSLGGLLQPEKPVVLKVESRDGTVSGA
Coagulation factor X, sequence (P00742 41-179 limits assumed): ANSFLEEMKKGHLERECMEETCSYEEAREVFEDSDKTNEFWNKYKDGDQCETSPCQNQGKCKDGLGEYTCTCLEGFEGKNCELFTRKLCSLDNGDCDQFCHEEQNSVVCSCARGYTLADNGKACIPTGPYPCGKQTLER
Coagulation factor X, sequence (P00742 235-488 limits assumed): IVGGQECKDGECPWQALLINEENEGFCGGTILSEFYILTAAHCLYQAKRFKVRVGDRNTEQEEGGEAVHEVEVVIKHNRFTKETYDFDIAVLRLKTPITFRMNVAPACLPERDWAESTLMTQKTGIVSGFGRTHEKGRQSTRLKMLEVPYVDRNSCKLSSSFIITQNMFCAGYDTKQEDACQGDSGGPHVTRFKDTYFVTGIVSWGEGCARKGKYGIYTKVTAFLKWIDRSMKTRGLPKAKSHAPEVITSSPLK
Cytochrome P450 2C9, sequence (P11712 whole entry): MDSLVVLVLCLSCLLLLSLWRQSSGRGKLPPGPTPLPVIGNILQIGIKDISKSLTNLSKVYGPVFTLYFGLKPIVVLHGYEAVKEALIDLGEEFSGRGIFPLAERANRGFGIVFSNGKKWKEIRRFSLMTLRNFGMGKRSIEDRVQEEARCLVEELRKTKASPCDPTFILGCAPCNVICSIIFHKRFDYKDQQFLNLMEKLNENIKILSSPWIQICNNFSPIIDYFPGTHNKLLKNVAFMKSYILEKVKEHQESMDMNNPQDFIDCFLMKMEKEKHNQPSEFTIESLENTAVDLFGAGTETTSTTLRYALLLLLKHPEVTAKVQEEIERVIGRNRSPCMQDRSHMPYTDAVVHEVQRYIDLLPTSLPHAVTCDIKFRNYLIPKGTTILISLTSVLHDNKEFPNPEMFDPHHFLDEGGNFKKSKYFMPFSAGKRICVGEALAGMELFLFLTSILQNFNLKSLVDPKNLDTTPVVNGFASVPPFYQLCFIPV
Coagulation factor IX, sequence (P00740 47-191 limits assumed): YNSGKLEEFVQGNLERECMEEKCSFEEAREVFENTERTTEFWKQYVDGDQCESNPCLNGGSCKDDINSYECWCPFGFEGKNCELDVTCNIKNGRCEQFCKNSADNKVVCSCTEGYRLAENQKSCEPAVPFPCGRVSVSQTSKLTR
Coagulation factor IX, sequence (P00740 227-461 limits assumed): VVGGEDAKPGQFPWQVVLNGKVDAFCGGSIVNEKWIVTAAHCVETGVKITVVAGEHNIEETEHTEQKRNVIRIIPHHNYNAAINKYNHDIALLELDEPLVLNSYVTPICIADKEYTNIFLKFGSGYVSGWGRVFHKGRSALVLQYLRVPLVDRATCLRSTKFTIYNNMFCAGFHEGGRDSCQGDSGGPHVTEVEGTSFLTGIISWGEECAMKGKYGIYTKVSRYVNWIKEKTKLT

Compound: Cc1cc2nc([C@@H](CNC(=O)c3c(Cl)cc(-n4cnnc4)cc3Cl)c3ccccc3)[nH]c2cc1C
- Ki (Coagulation factor IX): 0.0036 µM
- Ki (Coagulation factor X): 0.105 µM

Compound: Cc1cc2nc([C@@H](CNC(=O)c3c(F)cc(-n4cnnc4)cc3Cl)c3ccccc3)[nH]c2cc1C
- Ki (Coagulation factor IX): 0.0152 µM
- Ki (Coagulation factor X): 0.544 µM

Compound: Cc1cc2nc([C@@H](CNC(=O)c3c(C)cc(-n4cnnc4)cc3Cl)c3ccccc3)[nH]c2cc1C
- Ki (Coagulation factor IX): 0.008 µM
- Ki (Coagulation factor X): 0.195 µM

Compound: Cc1cc2nc([C@@H](CNC(=O)c3c(Cl)cc(-n4cnnc4)cc3C(F)(F)F)c3ccccc3)[nH]c2cc1C
- Ki (Coagulation factor IX): 0.0218 µM
- Ki (Coagulation factor X): 0.34 µM

Compound: COc1cc(-n2cnnc2)cc(Cl)c1C(=O)NC[C@@H](c1ccccc1)c1nc2cc(C)c(C)cc2[nH]1
- Ki (Coagulation factor IX): 0.0148 µM
- Ki (Coagulation factor X): 0.245 µM

Compound: Cc1ncn(-c2cc(Cl)c(C(=O)NC[C@@H](c3ccccc3)c3nc4cc(C)c(C)cc4[nH]3)c(Cl)c2)n1
- Ki (Coagulation factor IX): 0.0208 µM
- Ki (Coagulation factor X): 2.47 µM

Compound: Cc1cc2nc([C@@H](CNC(=O)c3ccc(-n4cnnc4)cc3Cl)c3ccccc3F)[nH]c2cc1C
- Ki (Coagulation factor IX): 0.0193 µM
- Ki (Coagulation factor X): 0.412 µM

Compound: Cc1cc2nc([C@@H](CNC(=O)c3ccc(-n4cnnc4)cc3Cl)c3cccc(F)c3)[nH]c2cc1C
- Ki (Coagulation factor IX): 0.0057 µM
- Ki (Coagulation factor X): 1.01 µM

Compound: Cc1cc2nc([C@@H](CNC(=O)c3ccc(-n4cnnc4)cc3Cl)c3ccc(F)cc3)[nH]c2cc1C
- Ki (Coagulation factor IX): 0.0084 µM
- Ki (Coagulation factor X): 1.51 µM

Compound: Cc1cc2nc([C@@H](CNC(=O)c3ccc(-n4cnnc4)cc3Cl)c3cccnc3)[nH]c2cc1C
- Ki (Coagulation factor IX): 0.0154 µM
- Ki (Coagulation factor X): 1.6 µM

Compound: Cc1ncn(-c2cc(Cl)c(C(=O)NC[C@@H](c3cccc(F)c3)c3nc4cc(C)c(Cl)cc4[nH]3)c(Cl)c2)n1
- Ki (Coagulation factor IX): 0.0136 µM
- Ki (Coagulation factor X): 15.2 µM

Compound: COc1cc2nc([C@@H](CNC(=O)c3c(Cl)cc(-n4cnc(C)n4)cc3Cl)c3cccc(F)c3)[nH]c2cc1Cl
- Ki (Coagulation factor IX): 0.0029 µM
- bioavailability [1]: 7.89%
- clearance [2]: 42.1 mL/min/kg
- IC50 (Cytochrome P450 2D6): > 50 µM
- AUC/dose (Rattus norvegicus): 0.056 µM·h/mg/kg
- IC50 (Cytochrome P450 3A4): 33.3 µM
- Ki (Coagulation factor X): 1.93 µM
- half-life [3]: 1.03 h
- IC50 (Cytochrome P450 2C9): 9.09 µM
- IC50 [4]: 10.9 µM
- IC50 (Cytochrome P450 2C8): 0.456 µM

Compound: Cc1ncn(-c2cc(Cl)c(C(=O)NC[C@@H](c3cccc(F)c3)c3nc4ccc(Cl)cc4[nH]3)c(Cl)c2)n1
- Ki (Coagulation factor IX): 0.0098 µM
- bioavailability [1]: 48.2%
- clearance [2]: 8.77 mL/min/kg
- IC50 (Cytochrome P450 2D6): 30.4 µM
- AUC/dose (Rattus norvegicus): 1.74 µM·h/mg/kg
- IC50 (Cytochrome P450 3A4): > 50 µM
- Ki (Coagulation factor X): 20.7 µM
- half-life [3]: 0.8 h
- IC50 (Cytochrome P450 2C9): 19.8 µM
- IC50 (Cytochrome P450 2C8): 5.28 µM

Compound: Cc1ncn(-c2cc(Cl)c(C(=O)NC[C@@H](c3cccc(F)c3)c3nc4c(C)cc(Cl)cc4[nH]3)c(Cl)c2)n1
- Ki (Coagulation factor IX): 0.0062 µM
- bioavailability [1]: 57.3%
- clearance [2]: 3.84 mL/min/kg
- IC50 (Cytochrome P450 2D6): > 50 µM
- AUC/dose (Rattus norvegicus): 4.36 µM·h/mg/kg
- IC50 (Cytochrome P450 3A4): > 50 µM
- Ki (Coagulation factor X): > 28.9 µM
- half-life [3]: 1.66 h
- IC50 (Cytochrome P450 2C9): 22.4 µM
- IC50 [4]: 3.05 µM
- IC50 (Cytochrome P450 2C8): 4.04 µM

Compound: Cc1ncn(-c2cc(Cl)c(C(=O)NC[C@@H](c3cccc(F)c3)c3ccc4[nH]c(C)nc4c3)c(Cl)c2)n1
- Ki (Coagulation factor IX): 0.0091 µM
- bioavailability [1]: 11.1%
- clearance [2]: 36.5 mL/min/kg
- IC50 (Plasma [5]): 1.9 µM
- IC50 (Plasma [6]): 1.6 µM
- IC50 (Cytochrome P450 2D6): 31.6 µM
- IC50 (Plasma [7]): 22.4 µM
- IC50 (Plasma [8]): 2.52 µM
- AUC/dose (Rattus norvegicus): 0.097 µM·h/mg/kg
- IC50 (Cytochrome P450 3A4): > 50 µM
- Ki (Coagulation factor X): 2.8 µM
- IC50 (Plasma [9]): 1.85 µM
- IC50 (Plasma [10]): 7.16 µM
- half-life [3]: 1.24 h
- IC50 (Cytochrome P450 2C9): 24.9 µM
- IC50 (Plasma [11]): 1.16 µM
- IC50 [4]: 19.9 µM
- IC50 (Plasma [12]): 1.64 µM
- IC50 (Plasma [13]): 0.303 µM
- IC50 (Plasma [14]): 0.953 µM
- IC50 (Cytochrome P450 2C8): 1.57 µM

Compound: Cc1ncn(-c2cc(Cl)c(C(=O)NC[C@@H](c3cccc(F)c3)c3cnc4[nH]c(C)cc4c3)c(Cl)c2)n1
- Ki (Coagulation factor IX): 0.0037 µM
- Ki (Coagulation factor X): > 28.9 µM

Compound: Cc1ncn(-c2cc(Cl)c(C(=O)NC[C@@H](c3cccc(F)c3)c3nc4c(F)ccc(C)c4c(=O)[nH]3)c(Cl)c2)n1
- Ki (Coagulation factor IX): 0.001 µM
- bioavailability [1]: 14.1%
- clearance [2]: 15.5 mL/min/kg
- IC50 (Cytochrome P450 2D6): > 50 µM
- AUC/dose (Rattus norvegicus): 0.284 µM·h/mg/kg
- IC50 (Cytochrome P450 3A4): > 50 µM
- Ki (Coagulation factor X): > 28.9 µM
- half-life [3]: 1.12 h
- IC50 (Cytochrome P450 2C9): 42.8 µM
- IC50 [4]: > 60 µM
- IC50 (Cytochrome P450 2C8): 24.4 µM

Compound: Cc1ncn(-c2cc(Cl)c(C(=O)NC[C@@H](c3cccc(F)c3)c3cc(=O)c4c(C)ccc(F)c4[nH]3)c(Cl)c2)n1
- Ki (Coagulation factor IX): 0.0033 µM
- Ki (Coagulation factor X): > 28.9 µM

Compound: Cc1ncn(-c2cc(Cl)c(C(=O)NC[C@@H](c3cccc(F)c3)c3ccc4c(C)ccc(F)c4n3)c(Cl)c2)n1
- Ki (Coagulation factor IX): 0.0104 µM
- Ki (Coagulation factor X): > 28.9 µM

Compound: COc1ccc(-n2nc(C(N)=O)c3c2C(=O)N(c2ccc(N4CCCCC4=O)cc2)CC3)cc1 [APIXABAN]
- IC50 (Plasma [5]): 0.299 µM
- IC50 (Plasma [6]): 0.116 µM
- IC50 (Plasma [7]): 2.41 µM
- IC50 (Plasma [8]): 0.191 µM
- IC50 (Plasma [9]): 0.159 µM
- IC50 (Plasma [10]): 0.747 µM
- IC50 (Plasma [11]): 0.0337 µM
- IC50 (Plasma [12]): 0.0476 µM
- IC50 (Plasma [13]): 0.0513 µM
- IC50 (Plasma [14]): 0.0484 µM
